The target of one assay is CDK2/Cyclin E1 complex (Homo sapiens, UniProt P24941). Description: CDK2 inhibition assay (Caliper/LabChip EZ Reader kinase assay). The class given is biochemical. The conditions noted are these: Table 1, CDK2/Cyclin E1 0.5 nM, ATP 2 mM, 35 min at 27° C. An outline of the steps: (§1)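 Caliper/LabChip EZ Reader mobility-shift assays. CDK9/Cyclin T1 at 8 nM with 2 μM 5-FAM-CDK9tide peptide and 10 mM MgCl2; CDK2/Cyclin E1 at 0.5 nM with 2 μM 5-FAM-CDK7tide and 2 mM MgCl2.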

Assay [1] addresses CDK7/Cyclin H/MAT1 complex (Homo sapiens, UniProt P50613). Description: CDK7 inhibition assay (Caliper/LabChip EZ Reader kinase assay). The class given is biochemical. The conditions noted are these: Table 1, CDK7/Cyclin H/MAT1 6 nM, ATP 2 mM, 35 min at 27° C. An outline of the steps: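 A Perkin Elmer Caliper/LabChip EZ Reader (Waltham, MA) platform served as the basis for this CDK7 kinase inhibition assay. The work was carried out by Biortus Biosciences, located in Jiangyin, Jiangsu Province, P.R. of China. Each CDK studied had its own kinase assay, and compounds were evaluated for their ability to block CDK7 activity.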

A further assay concerns the target CDK9/Cyclin T1 complex (Homo sapiens, UniProt P50750). Put plainly: CDK9 inhibition assay (Caliper/LabChip EZ Reader kinase assay). It counts as biochemical. The conditions noted are these: Table 1, CDK9/Cyclin T1 8 nM, ATP 2 mM, 15 min at 27° C. The essentials: as §1
The next assay relates to HCC70 cells. Description: Inhibition of proliferation of HCC70 cells (CyQUANT Direct Cell Proliferation Assay, 72 hour). The class given is cell-based, human. The conditions noted are these: Homo sapiens, HCC70, 72 h, read-out: Inhibition of Proliferation of HCC70 Cells (calculated IC50). An outline of the steps:
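Human triple-negative breast cancer HCC70 cells cultured at 37° C, 5% CO2, with compound for 72 hour. Anti-proliferative effect read by CyQUANT Direct Cell Proliferation Assay. Dinaciclib, a CDK inhibitor analog and triptolide served as positive controls.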

The target in assay [2] is T1, CDK12 (aa686-1082)/Cyclin K complex (Homo sapiens, UniProt Q9NYV4).
T1 construct: CDK12 (aa686-1082)/Cyclin K complex
T1 sequence (Q9NYV4 686-1082, species assumed): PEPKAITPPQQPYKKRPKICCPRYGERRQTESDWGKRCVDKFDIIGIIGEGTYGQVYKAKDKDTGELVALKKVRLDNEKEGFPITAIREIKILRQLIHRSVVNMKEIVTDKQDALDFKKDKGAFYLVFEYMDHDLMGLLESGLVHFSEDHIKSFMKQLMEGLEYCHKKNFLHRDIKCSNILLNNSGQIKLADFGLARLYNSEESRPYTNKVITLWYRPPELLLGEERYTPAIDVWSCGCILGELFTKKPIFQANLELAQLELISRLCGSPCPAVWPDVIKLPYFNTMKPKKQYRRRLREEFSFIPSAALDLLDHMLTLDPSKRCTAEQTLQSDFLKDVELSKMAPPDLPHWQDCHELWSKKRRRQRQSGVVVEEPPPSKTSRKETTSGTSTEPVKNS
T1 sequence (O75909 whole entry partner, species assumed, the tested form may be a part): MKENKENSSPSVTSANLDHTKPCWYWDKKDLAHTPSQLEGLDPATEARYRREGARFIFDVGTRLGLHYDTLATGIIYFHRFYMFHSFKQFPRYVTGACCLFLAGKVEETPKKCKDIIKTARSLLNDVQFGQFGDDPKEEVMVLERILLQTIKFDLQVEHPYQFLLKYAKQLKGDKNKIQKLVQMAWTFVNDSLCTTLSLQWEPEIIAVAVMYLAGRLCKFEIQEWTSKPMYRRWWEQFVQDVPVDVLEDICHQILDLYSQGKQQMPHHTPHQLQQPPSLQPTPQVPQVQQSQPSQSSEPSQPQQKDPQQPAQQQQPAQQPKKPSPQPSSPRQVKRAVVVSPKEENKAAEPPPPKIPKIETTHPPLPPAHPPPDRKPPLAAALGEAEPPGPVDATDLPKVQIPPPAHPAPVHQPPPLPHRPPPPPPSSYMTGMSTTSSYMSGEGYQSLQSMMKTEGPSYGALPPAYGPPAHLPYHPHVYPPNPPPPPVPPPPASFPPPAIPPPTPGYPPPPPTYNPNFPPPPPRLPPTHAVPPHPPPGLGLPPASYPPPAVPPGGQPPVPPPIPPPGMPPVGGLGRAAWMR
Put plainly: CDK12 inhibition assay (Caliper/LabChip EZ Reader kinase assay). It counts as biochemical. The conditions noted are these: Table 1, CDK12 (aa686-1082)/Cyclin K 50 nM, ATP 2 mM, 3 hr at 27° C.

In another assay the test system is A673 cells. Description: Inhibition of proliferation of A673 cells (CyQUANT, 72 hour). The class given is cell-based, human. The conditions noted are these: A673 cells, 72 hour, CyQUANT, read-out: Inhibition of Proliferation of A673 Cells (calculated IC50). An outline of the steps: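 Human Ewing's sarcoma A673 cells in DMEM with 10% FBS and 1 mM sodium pyruvate, 37° C, 5% CO2, treated 72 h with compound from 4 μM to […] (0.5 log dilutions). Antiproliferative effect read by CyQUANT assay.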

The structures appear in SMILES notation. Read-outs that look alike come from different tables or passages of the source.

Chain of CDK9/Cyclin T1 complex (P50750 whole entry, species assumed): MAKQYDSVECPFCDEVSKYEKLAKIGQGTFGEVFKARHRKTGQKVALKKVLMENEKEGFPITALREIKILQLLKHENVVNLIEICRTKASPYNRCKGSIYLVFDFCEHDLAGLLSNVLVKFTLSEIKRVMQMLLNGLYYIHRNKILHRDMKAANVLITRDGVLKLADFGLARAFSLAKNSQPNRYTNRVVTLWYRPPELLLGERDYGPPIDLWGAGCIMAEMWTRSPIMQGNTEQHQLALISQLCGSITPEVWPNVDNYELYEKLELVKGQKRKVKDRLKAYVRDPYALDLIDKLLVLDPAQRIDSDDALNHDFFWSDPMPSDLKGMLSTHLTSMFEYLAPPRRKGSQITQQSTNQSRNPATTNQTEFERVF
Chain of CDK9/Cyclin T1 complex (O60563 whole entry partner, species assumed): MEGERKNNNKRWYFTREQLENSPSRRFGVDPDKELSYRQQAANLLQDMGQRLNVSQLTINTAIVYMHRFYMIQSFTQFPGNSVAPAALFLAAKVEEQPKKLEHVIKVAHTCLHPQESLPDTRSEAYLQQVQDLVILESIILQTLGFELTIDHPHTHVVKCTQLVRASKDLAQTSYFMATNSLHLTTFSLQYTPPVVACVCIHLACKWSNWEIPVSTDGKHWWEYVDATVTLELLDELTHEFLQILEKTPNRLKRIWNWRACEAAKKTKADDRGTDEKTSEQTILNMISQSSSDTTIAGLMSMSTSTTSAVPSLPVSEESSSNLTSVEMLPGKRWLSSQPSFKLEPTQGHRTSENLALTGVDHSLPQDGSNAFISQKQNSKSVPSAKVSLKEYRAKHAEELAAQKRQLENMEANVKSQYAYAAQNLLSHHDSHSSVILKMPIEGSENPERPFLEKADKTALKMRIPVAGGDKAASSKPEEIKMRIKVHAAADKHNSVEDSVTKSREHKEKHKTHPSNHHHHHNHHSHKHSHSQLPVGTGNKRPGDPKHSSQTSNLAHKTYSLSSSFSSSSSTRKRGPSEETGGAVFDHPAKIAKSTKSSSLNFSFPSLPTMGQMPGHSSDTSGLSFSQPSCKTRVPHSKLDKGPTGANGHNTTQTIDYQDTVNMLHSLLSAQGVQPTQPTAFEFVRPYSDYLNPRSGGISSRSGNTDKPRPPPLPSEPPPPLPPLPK
Chain of CDK7/Cyclin H/MAT1 complex (P50613 whole entry, species assumed): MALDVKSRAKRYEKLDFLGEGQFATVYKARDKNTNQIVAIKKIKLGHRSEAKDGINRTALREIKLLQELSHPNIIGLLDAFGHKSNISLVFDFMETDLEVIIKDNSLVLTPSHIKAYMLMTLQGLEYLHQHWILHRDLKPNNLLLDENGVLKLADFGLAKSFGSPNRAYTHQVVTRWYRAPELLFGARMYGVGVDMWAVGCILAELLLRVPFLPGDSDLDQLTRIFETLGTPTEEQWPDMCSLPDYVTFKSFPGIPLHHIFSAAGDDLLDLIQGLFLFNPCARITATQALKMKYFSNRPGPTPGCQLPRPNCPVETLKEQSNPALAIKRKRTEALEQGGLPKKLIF
Chain of CDK7/Cyclin H/MAT1 complex (P51946 whole entry partner, species assumed): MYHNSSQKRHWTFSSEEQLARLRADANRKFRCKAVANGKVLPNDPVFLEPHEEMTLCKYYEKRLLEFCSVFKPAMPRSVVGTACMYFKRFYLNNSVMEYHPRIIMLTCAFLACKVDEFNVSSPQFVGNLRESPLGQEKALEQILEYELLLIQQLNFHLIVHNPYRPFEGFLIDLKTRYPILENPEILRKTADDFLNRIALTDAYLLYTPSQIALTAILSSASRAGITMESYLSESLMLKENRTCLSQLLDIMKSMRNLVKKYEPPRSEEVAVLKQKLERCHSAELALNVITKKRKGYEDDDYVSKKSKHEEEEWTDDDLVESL
Chain of CDK7/Cyclin H/MAT1 complex (P51948 whole entry partner, species assumed): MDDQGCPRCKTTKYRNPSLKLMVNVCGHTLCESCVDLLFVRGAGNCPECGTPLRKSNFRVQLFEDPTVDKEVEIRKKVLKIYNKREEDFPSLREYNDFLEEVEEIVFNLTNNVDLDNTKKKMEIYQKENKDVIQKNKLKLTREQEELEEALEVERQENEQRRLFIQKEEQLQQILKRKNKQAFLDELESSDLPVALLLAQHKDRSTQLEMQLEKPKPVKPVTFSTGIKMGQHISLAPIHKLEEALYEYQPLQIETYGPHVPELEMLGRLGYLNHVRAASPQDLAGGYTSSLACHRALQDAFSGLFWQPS

In the case of `O=C(C1CCC(Nc2ncc(C(F)(F)F)c(-c3c[nH]c4ccccc34)n2)CN1)N1CCC(O)C1` (mixture of isomers) [Compound 250], the IC50 was 0.2 to 5 µM against CDK2/Cyclin E1 complex; less than 0.02 µM in assay [1]; greater than 5 µM on CDK9/Cyclin T1 complex; 1 to 5 µM in the assay with HCC70 cells; 0.2 to 5 µM in assay [2]; 0.2 to 5 µM with A673 cells.

On to `CC1(O)CCN(C(=O)c2ccc3c(-c4nc(N[C@H]5CCCNC5)ncc4C(F)(F)F)c[nH]c3c2)C1` (single isomer, unassigned) [Compound 221], for which the IC50 on CDK2/Cyclin E1 complex is greater than 5 µM; in assay [1] it was less than 0.02 µM; against CDK9/Cyclin T1 complex, greater than 5 µM; in the assay on HCC70 cells it was 0.1 to 1 µM; in assay [2] it was greater than 5 µM; in the assay with A673 cells (Homo sapiens, A673, 72 h) it was 0.2 to 5 µM.

Regarding `Cc1n[nH]cc1-c1cccc2c(-c3nc(NC4CCCNC4)ncc3C(F)(F)F)c[nH]c12` (stereo in doubt) [Compound 175], the IC50 against CDK2/Cyclin E1 complex is 0.2 to 5 µM; in assay [1], less than 0.02 µM; against CDK9/Cyclin T1 complex, 0.02 to 0.2 µM; in the assay on HCC70 cells, 1 to 5 µM; in assay [2] it was 0.2 to 5 µM; in the assay on A673 cells (Homo sapiens, A673, 72 h), less than 0.02 µM.

`FC(F)(F)c1cnc(N[C@H]2CCCNC2)nc1-c1n[nH]c2ccccc12` [Compound 103]: the IC50 was 0.2 to 5 µM against CDK2/Cyclin E1 complex; less than 0.02 µM in assay [1]; 0.2 to 5 µM against CDK9/Cyclin T1 complex; less than 0.1 µM with HCC70 cells; 0.02 to 0.2 µM in assay [2]; 0.02 to 0.2 µM in the assay on A673 cells (Homo sapiens, A673, 72 h).

`CCc1cnc(NC2CCCNC2)nc1-c1c[nH]c2c(F)cccc12` (centres unmarked) [Compound 144]: the IC50 is 0.2 to 5 µM at CDK2/Cyclin E1 complex; less than 0.02 µM in assay [1]; 0.2 to 5 µM against CDK9/Cyclin T1 complex; 0.1 to 1 µM in the assay with HCC70 cells; 0.2 to 5 µM in assay [2]; 0.02 to 0.2 µM in the assay on A673 cells (Homo sapiens, A673, 72 h).

With `O=C1CC[C@H](Nc2ncc(Cl)c(-c3c[nH]c4ccccc34)n2)CN1` [Compound 159], the IC50 is 0.02 to 0.2 µM on CDK2/Cyclin E1 complex; 0.02 to 0.2 µM in assay [1]; 0.2 to 5 µM on CDK9/Cyclin T1 complex; 1 to 5 µM in the assay on HCC70 cells; 0.2 to 5 µM in assay [2]; 0.2 to 5 µM in the assay with A673 cells (Homo sapiens, A673, 72 h).

As to `FC(F)(F)c1cnc(N[C@H]2CCCNC2)nc1-c1c[nH]c2c(-c3cn[nH]c3)cccc12` [Compound 170], the IC50 is 0.2 to 5 µM on CDK2/Cyclin E1 complex; less than 0.02 µM in assay [1]; 0.2 to 5 µM against CDK9/Cyclin T1 complex; less than 0.1 µM in the assay with HCC70 cells; 0.02 to 0.2 µM in assay [2]; less than 0.02 µM with A673 cells (Homo sapiens, A673, 72 h).

For `CN1CCN(c2cccc3c(-c4nc(N[C@H]5CCCNC5)ncc4C(F)(F)F)c[nH]c23)C1=O` [Compound 176], the IC50 is 0.2 to 5 µM on CDK2/Cyclin E1 complex; less than 0.02 µM in assay [1]; 0.2 to 5 µM on CDK9/Cyclin T1 complex; 0.1 to 1 µM in the assay with HCC70 cells; 0.2 to 5 µM in assay [2]; less than 0.02 µM in the assay with A673 cells (Homo sapiens, A673, 72 h).

Regarding `FC(F)(F)c1cnc(N[C@H]2CCCNC2)nc1-c1c[nH]c2c(-c3ccnnc3)cccc12` [Compound 180], the IC50 was 0.02 to 0.2 µM against CDK2/Cyclin E1 complex; less than 0.02 µM in assay [1]; 0.2 to 5 µM against CDK9/Cyclin T1 complex; less than 0.1 µM in the assay with HCC70 cells; 0.02 to 0.2 µM in assay [2]; less than 0.02 µM in the assay on A673 cells (Homo sapiens, A673, 72 h).

As for `O=S(=O)(CF)c1ccc2c(-c3nc(N[C@H]4CCCNC4)ncc3C(F)(F)F)c[nH]c2c1` [Compound 365, 4-[6-(fluoromethylsulfonyl)-1H-indol-3-yl]-N-[(3S)-3-piperidyl]-5-(trifluoromethyl)pyrimidin-2-amine], the IC50 against CDK2/Cyclin E1 complex is 0.2 to 5 µM; in assay [1], less than 0.02 µM; at CDK9/Cyclin T1 complex it was 0.2 to 5 µM; with HCC70 cells it was 0.1 to 1 µM; in assay [2], 0.2 to 5 µM.

Take `CCCc1cnc(N[C@H]2CCCNC2)nc1-c1c[nH]c2c(S(C)(=O)=O)c(C#N)ccc12` [Compound 367, 7-methylsulfonyl-3-[2-[[(3S)-3-piperidyl]amino]-5-propyl-pyrimidin-4-yl]-1H-indole-6-carbonitrile]: the IC50 against CDK2/Cyclin E1 complex is greater than 5 µM; in assay [1], 0.02 to 0.2 µM; against CDK9/Cyclin T1 complex it was greater than 5 µM; in the assay with HCC70 cells, 1 to 5 µM; in assay [2], greater than 5 µM.

`N#Cc1ccc2c(-c3nc(N[C@@H]4CNC[C@@H](F)C4)ncc3C(F)(F)F)c[nH]c2c1` [Compound 368, 3-[2-[[(3S,5S)-5-fluoro-3-piperidyl]amino]-5-(trifluoromethyl)pyrimidin-4-yl]-1H-Indole-6-carbonitrile]: the IC50 was greater than 5 µM at CDK2/Cyclin E1 complex; greater than 5 µM on CDK2/Cyclin E1 complex (listed as 128); 0.02 to 0.2 µM in assay [1]; greater than 5 µM in assay [1] (listed as 128); greater than 5 µM against CDK9/Cyclin T1 complex; greater than 5 µM against CDK9/Cyclin T1 complex (listed as 128). In addition, the IC50 is 1 to 5 µM in the assay with HCC70 cells, 0.2 to 5 µM in assay [2] and greater than 5 µM in assay [2] (listed as 128).

As for `CN(C)S(=O)(=O)c1cccc2c(-c3nc(NC4CCCNC4)ncc3C(F)(F)F)c[nH]c12` (centres unmarked) [Compound 371], the IC50 against CDK2/Cyclin E1 complex is 0.2 to 5 µM; in assay [1], less than 0.02 µM; on CDK9/Cyclin T1 complex it was 0.2 to 5 µM; in the assay on HCC70 cells it was less than 0.1 µM; in assay [2] it was 0.2 to 5 µM.

Take `FC(F)Sc1ccc2c(-c3nc(N[C@H]4CCCNC4)ncc3C(F)(F)F)c[nH]c2c1` [Compound 374, 4-[6-(difluoromethylsulfanyl)-1H-indol-3-yl]-N-[(3S)-3-piperidyl]-5-(trifluoromethyl) pyrimidin-2-amine]: the IC50 against CDK2/Cyclin E1 complex was 0.2 to 5 µM; in assay [1] it was less than 0.02 µM; against CDK9/Cyclin T1 complex, 0.2 to 5 µM; in the assay on HCC70 cells, less than 0.1 µM; in assay [2], 0.02 to 0.2 µM.

As for `O=S(=O)(c1ccc2c(-c3nc(N[C@H]4CCCNC4)ncc3C(F)(F)F)c[nH]c2c1)C(F)F` [Compound 375, 4-[6-(difluoromethylsulfonyl)-1H-indol-3-yl]-N-[(3S)-3-piperidyl]-5-(trifluoromethyl)pyrimidin-2-amine], the IC50 at CDK2/Cyclin E1 complex is 0.2 to 5 µM; in assay [1], less than 0.02 µM; at CDK9/Cyclin T1 complex, 0.2 to 5 µM; with HCC70 cells, 0.1 to 1 µM; in assay [2] it was 0.2 to 5 µM.

Consider `CC1(C)CNC[C@@H](Nc2ncc(C(F)(F)F)c(-c3c[nH]c4cc(S(C)(=O)=O)ccc34)n2)C1` [Compound 376, N-[(3S)-5,5-dimethyl-3-piperidyl]-4-(6-methylsulfonyl-1H-indol-3-yl)-5-(trifluoromethyl) pyrimidin-2-amine], for which the IC50 against CDK2/Cyclin E1 complex was 0.2 to 5 µM; in assay [1], 0.02 to 0.2 µM; against CDK9/Cyclin T1 complex, greater than 5 µM; in the assay on HCC70 cells, 0.1 to 1 µM; in assay [2], 0.2 to 5 µM.

On to `CCP(=O)(CC)c1ccc2c(-c3nc(N[C@H]4CCCNC4)ncc3C(F)(F)F)c[nH]c2c1` [Compound 379], for which the IC50 against CDK2/Cyclin E1 complex was greater than 5 µM; in assay [1] it was 0.02 to 0.2 µM; at CDK9/Cyclin T1 complex it was greater than 5 µM; in the assay with HCC70 cells it was 1 to 5 µM; in assay [2] it was greater than 5 µM.

Consider `[O-][S+](c1ccc2c(-c3nc(N[C@H]4CCCNC4)ncc3C(F)(F)F)c[nH]c2c1)C(F)F` (stereo partly drawn) [Compound 380, 4-[6-(difluoromethylsulfinyl)-1H-indol-3-yl]-N-[(3S)-3-piperidyl]-5-(trifluoromethyl) pyrimidin-2-amine], for which the IC50 against CDK2/Cyclin E1 complex was 0.2 to 5 µM; in assay [1], less than 0.02 µM; at CDK9/Cyclin T1 complex, 0.2 to 5 µM; in the assay with HCC70 cells, less than 0.1 µM; in assay [2], 0.2 to 5 µM.

Regarding `CS(=O)(=O)c1ccc2c(-c3nc(N[C@H]4CCCN(C5CC5)C4)ncc3C(F)(F)F)c[nH]c2c1` [Compound 381, N-[(3S)-1-cyclopropyl-3-piperidyl]-4-(6-methylsulfonyl-1H-indol-3-yl)-5-(trifluoromethyl) pyrimidin-2-amine], the IC50 against CDK2/Cyclin E1 complex is greater than 5 µM; in assay [1], 0.02 to 0.2 µM; on CDK9/Cyclin T1 complex, greater than 5 µM; with HCC70 cells, 1 to 5 µM; in assay [2] it was 0.2 to 5 µM.

Turning to `CC1(C)CNC[C@@H](Nc2ncc(Cl)c(-c3c[nH]c4c(S(C)(=O)=O)c(C#N)ccc34)n2)C1` [Compound 382, 3-[5-chloro-2-[[(3S)-5,5-dimethyl-3-piperidyl]amino]pyrimidin-4-yl]-7-methylsulfonyl-1H-indole-6-carbonitrile], the IC50 was 0.2 to 5 µM at CDK2/Cyclin E1 complex; less than 0.02 µM in assay [1]; 0.2 to 5 µM at CDK9/Cyclin T1 complex; less than 0.1 µM with HCC70 cells; 0.2 to 5 µM in assay [2].

These data come from US20240360165A1, “INHIBITORS OF CYCLIN DEPENDENT KINASE 7 (CDK7)” (Syros Pharmaceuticals, Inc., priority 2016, published 2024).
